Experimental data from patent publication US4755594A, “N^6 -substituted adenosines” (Warner-Lambert Company, priority 1986, dated 1988).

What was measured:
[1] = target: T1, adenosine A1 receptor (Rattus norvegicus, UniProt P25099); assay: Adenosine Receptor Binding--A1 Receptor Affinity (RBA1), [3H]-CHA, whole brain membranes; settings: read-out: RBA-1 IC50
T1 construct: Whole brain minus cerebellum and brainstem from male Long-Evans rats; from tissue; host or cells: whole brain minus cerebellum and brainstem, male Long-Evans rats
T1 sequence (P25099 1-326): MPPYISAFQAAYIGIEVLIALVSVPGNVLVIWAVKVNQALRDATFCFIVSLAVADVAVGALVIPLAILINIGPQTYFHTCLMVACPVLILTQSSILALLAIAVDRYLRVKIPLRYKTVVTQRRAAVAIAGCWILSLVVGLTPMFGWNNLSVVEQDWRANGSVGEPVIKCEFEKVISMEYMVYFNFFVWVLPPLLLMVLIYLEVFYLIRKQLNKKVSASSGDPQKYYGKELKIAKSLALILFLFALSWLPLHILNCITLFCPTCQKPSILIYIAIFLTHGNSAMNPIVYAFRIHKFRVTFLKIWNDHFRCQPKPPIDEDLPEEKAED
Procedure: Adenosine Receptor Binding--A1 Receptor Affinity (RBA1 )
Whole brain minus cerebellum and brainstem from male Long-Evans rats (150-200 g) was homogenized in 30 volumes of ice-cold 0.05M Tris-HCl buffer pH 7.7 using a Brinkman Polytron PT-10, (setting number 6 for 20 seconds) and centrifuged for ten minutes at 20,000 xg (Sorvall RC-2), 4° C. The supernatant was discarded, and the pellet was resuspended and centrifuged as before. The pellet was resuspended in 20 ml Tris-HCl buffer containing two International Units/ml of adenosine deaminase (Sigma type III from calf intestinal mucosa), incubated at 37° C. for 30 minutes, then subsequently at 0° C. for ten minutes. The homogenate was again centrifuged, and the final pellet was resuspended in ice-cold 0.05M Tris-HCl buffer pH 7.7 to a concentration of 20 mg/ml original wet tissue weight and used immediately.
Tissue homogenate (10 mg/ml) was incubated in 0.05M Tris-HCl buffer pH 7.7 containing 1.0 nM [^3 H]--N^6 -cyclohexyladenosine ([^3 H]--CHA) with or without test agents in triplicate for one hour at 25° C. Incubation volume was 2 ml. Unbound [^3 H]--CHA was separated by rapid filtration under reduced pressure through Whatman glass fiber (GF/B) filters. The filters were rinsed three times with 5 ml of ice cold 0.05M Tris-HCl buffer pH 7.7. The radio-labeled ligand retained on the filter was measured by liquid scintillation spectrophotometry after shaking the filters for one hour or longer on a mechanical shaker in 10 ml of Beckman Ready-Solv HP scintillation cocktail.
Nonspecific binding was defined as the binding which occurred in the presence of 1 mM theophylline. The concentration of test agent which inhibited 50% of the specific binding (IC50) was determined by nonlinear computer curve fit. The Scatchard plot was calculated by linear regression of the line obtained by plotting the amount of radioligand bound (pmoles/gram of tissue) [formula] Since the amount of radioligand bound was a small fraction of the total amount added, free radioligand was defined as the concentration of (nM) of radioligand added to the incubation mixture. The Hill coefficient was calculated by linear regression of the line obtained by plotting the log of the bound radioligand vs the log of the [formula] The maximal number of binding sites (Bmax) was calculated from the Scatchard plot.

[2] = Activity and screen test, rat orally: screen test; assay type: in vivo; settings: orally (PO)
Procedure: A two part testing procedure is started one hour postinjection. First, the screen test (ST) is performed (see Pharmac. Biochem. Behav. 6, 351-353, 1977). Briefly this test consists of placing mice on individual wire screens which are then rotated 180 degrees at the start of a 60 second observation period. The number of mice falling off the inverted screen is recorded.
The data obtained from the screen test are expressed as percent of mice falling off the screen. Data derived from locomotor activity of drug treated mice are compared to the activity of vehicle treated animals and are expressed as percent inhibition of spontaneous locomotion. All percentages reported for inhibition of locomotion (LI) are based upon data accumulated for one hour. Both phases of testing are graded: A=60-100%; C=31-59%; and N=0-30%. An overall dose rating is obtained by the following criteria: […]

[3] = target: T2, adenosine A2 receptor (Rattus norvegicus, UniProt P30543); assay: Adenosine Receptor Binding--A2 Receptor Affinity (RBA2), [3H]NECA, striatal membranes; settings: read-out: RBA-2 IC50
T2 construct: Brains were thawed and then kept on ice while the striata were dissected out; tissue Pel-Freez (Rogers, Ark.); host or cells: striata of Sprague-Dawley rats (Long-Evans hooded rats gave essentially identical results)
Procedure: Adenosine Receptor Binding--A2 Receptor Affinity (RBA2)
Brains from 200-500 g mixed sex Sprague-Dawley rats were purchased from Pel-Freez (Rogers, Ark.). Fresh brains from male Long-Evans hooded rats (Blue Spruce Farms, Altamont, NY) gave essentially identical results. Brains were thawed and then kept on ice while the striata were dissected out. Striata were disrupted in 10 vol of ice-cold 50 mM Tris.HCl (pH 7.7 at 25° C., pH 8.26 at 5° C.) (Tris) for 30 seconds in a Polytron PT-10 (Brinkmann) at setting 5. The suspension was centrifuged at 50,000 xg for ten minutes, the supernatant discarded, the pellet resuspended in 10 vol ice-cold Tris as above, recentrifuged, resuspended at 1 g/5ml, and stored in plastic vials at -70° C. (stable for at least six months). When needed, tissue was thawed at room temperature, disrupted in a Polytron, and kept on ice until used.
All incubations were for 60 minutes at 25° C. in 12×75 mm glass tubes containing 1 ml Tris with 5 mg original tissue weight of rat weight of rat striatal membranes, 4 nM [^3 H]--N-ethyl adenosine-5'-carboxamide ([^3 H]NECA), 50 nM N^6 -cyclopentyladenosine (to eliminate A1 receptor binding), 10 mM MgCl2, 0.1 units/ml of adenosine deaminase and 1% dimethylsulfoxide. N^6 -Cyclopentyladenosine was dissolved at 10 mM in 0.02N HCl and diluted in Tris. Stock solutions and dilutions of N^6 -cyclopentyladenosine could be stored at -20° C. for several months. Test compounds were dissolved at 10 mM in dimethylsulfoxide on the same day as the experiment, and diluted in dimethylsulfoxide to 100×the final incubation concentration. Control incubations received an equal volume (10 μl) of dimethylsulfoxide; the resulting concentration of dimethylsulfoxide had no effect on binding. [^3 H]NECA was diluted to 40 nM in Tris. The membrane suspension (5 mg/0.79 ml) contained sufficient MgCl2 and adenosine deaminase to give 10 mM and 0.1 units/ml, respectively, final concentration in the incubation. […] After all additions, the rack of tubes was vortexed, and the tubes were then incubated for 60 min at 25° C. in a shaking water bath. The rack of tubes was vortexed an additional time halfway through the incubation.
Incubations were terminated by filtration through 2.4 cm GF/B filters under reduced pressure. Each tube was filtered as follows: the contents of the tube were poured on the filter, 4 ml of ice-cold Tris were added to the tube and the contents poured onto the filter, and the filter was washed twice with 4 ml of ice-cold Tris. The filtration was complete in about twelve seconds. Filters were put in scintillation vials, 8 ml of Formula 947 scintillation fluid added, and the vials left overnight, shaken, and counted in a liquid scintillation counter at 40% efficiency.
Nonspecific binding was defined as binding in the presence of 100 μM N^6 -cyclopentyladenosine, and specific binding was defined as total binding minus nonspecific binding. The IC50 was calculated by weighted nonlinear least squares curve-fitting to the mass-action equation. [formula] where Y is cpm bound
T is cpm total binding without drug
S is cpm specific binding without drug
D is the concentration of drug and
K is the IC50 of the drug
Weighting factors were calculated under the assumption that the standard deviation was proportional to the predicted value of Y. Nonspecific binding was treated as a very large (infinite) concentration of drug in the computer analysis.

[4] = Activity and screen test, rat orally: inhibition of motor activity; assay type: in vivo; settings: orally (PO)

T2 sequence (P30543 whole entry): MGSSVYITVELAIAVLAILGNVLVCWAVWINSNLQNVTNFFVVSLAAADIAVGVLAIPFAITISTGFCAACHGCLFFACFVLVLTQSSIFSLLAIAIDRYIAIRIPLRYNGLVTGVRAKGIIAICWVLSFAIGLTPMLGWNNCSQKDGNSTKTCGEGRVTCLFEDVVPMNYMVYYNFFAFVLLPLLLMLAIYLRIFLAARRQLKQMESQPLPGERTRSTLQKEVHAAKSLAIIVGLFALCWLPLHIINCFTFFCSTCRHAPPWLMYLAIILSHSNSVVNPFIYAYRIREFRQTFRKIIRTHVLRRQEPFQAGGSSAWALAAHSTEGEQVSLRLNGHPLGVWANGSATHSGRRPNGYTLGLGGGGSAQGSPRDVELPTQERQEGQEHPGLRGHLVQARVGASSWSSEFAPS

IC50 [1]: 6.5 µM
Inhibition of screen test failure ([2]; 1 mg/kg): 11%
Inhibition of screen test failure ([2]; 3 mg/kg): 0%
Inhibition of screen test failure ([2]; 10 mg/kg): 0%
IC50 [3]: 35 µM
Compound: [O-][n+]1cnc2c(ncn2[C@@H]2O[C@H](CO)[C@@H](O)[C@H]2O)c1NCC1(c2ccccc2)CC1 [Example 4, N6-((1-Phenylcyclopropyl)methyl)adenosine-N1-oxide]
Inhibition of motor activity ([4]; 1 mg/kg): 2%
Inhibition of motor activity ([4]; 3 mg/kg): 15%
Inhibition of motor activity ([4]; 10 mg/kg): 2%
